Experiment: Transmembrane screen (TS) for membrane affinity: drug solution added to membrane lipid Test system in 96 well plate, turbidity assessed visually or at 690 nm
Type: physicochemical
Details: higher turbidity with VP 805 than VP200 at 10:1 or lower lipid to drug ratios

- relative affinity for VP 200 versus VP 805 (turbidity): higher affinity for VP 200 than VP 805
Compound: Clc1ccccc1C(c1ccccc1)(c1ccccc1)n1ccnc1 [Clotrimazole]
